Assay results published in patent US20200247794A1, “PHARMACOPHORES, COMPOUNDS AND METHODS HAVING APPLICATION IN THE TREATMENT OF CANCER THROUGH INHIBITION OF CYP17A1 AND CYP19A1” (MANGOSUTHU UNIVERSITY OF TECHNOLOGY, priority 2015, published 2020).

How the values were obtained:
Solubility in DMSO = type: physicochemical
[1] = tested on: CYP1A2, CYP2C9, CYP2C19, CYP2D6, and CYP3A4; test: CYP inhibition against major 5 human liver CYPs (panel, summary in words); type: in vitro ADME; conditions: drug-drug interaction remark
CYP2D6 = biological target: T1, CYP2D6 (Homo sapiens, UniProt P10635); test: CYP inhibition, 5 CYP bactosome mix: CYP2D6 (bufuralol); type: in vitro ADME; conditions: bufuralol 10 μM
T1 construct: purchased Cypex, Dundee CYP/XG001, Batch XG001001; host or cells: E. coli
Source text: (§1) CYP Inhibition Against Major 5 Human Liver CYPs in E. coli CYPEX Membranes
The final DMSO concentration was 1%.

CYP1A2 = biological target: T2, CYP1A2 (Homo sapiens, UniProt P05177); test: CYP inhibition, 5 CYP bactosome mix: CYP1A2 (tacrine); type: in vitro ADME; conditions: tacrine 0.5 μM
T2 construct: purchased Cypex, Dundee CYP/XG001, Batch XG001001; host or cells: E. coli
T2 sequence (P05177 1-516): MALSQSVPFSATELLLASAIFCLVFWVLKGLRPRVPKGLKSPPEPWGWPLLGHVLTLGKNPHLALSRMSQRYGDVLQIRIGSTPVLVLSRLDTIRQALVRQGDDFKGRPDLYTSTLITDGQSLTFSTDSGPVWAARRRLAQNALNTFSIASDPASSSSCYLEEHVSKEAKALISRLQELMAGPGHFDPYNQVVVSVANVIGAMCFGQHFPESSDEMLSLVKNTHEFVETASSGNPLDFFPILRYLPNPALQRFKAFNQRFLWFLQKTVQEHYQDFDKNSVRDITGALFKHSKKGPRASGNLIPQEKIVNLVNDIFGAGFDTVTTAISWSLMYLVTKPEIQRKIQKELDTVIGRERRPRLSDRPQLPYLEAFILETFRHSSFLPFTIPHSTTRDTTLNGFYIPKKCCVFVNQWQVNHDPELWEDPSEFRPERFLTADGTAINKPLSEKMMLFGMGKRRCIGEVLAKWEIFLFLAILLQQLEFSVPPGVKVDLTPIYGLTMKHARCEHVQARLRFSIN
Source text: as §1
The final DMSO concentration was 1%.

CYP3A4 = biological target: T3, CYP3A4 (Homo sapiens, UniProt P08684); test: CYP inhibition, 5 CYP bactosome mix: CYP3A4 (midazolam); type: in vitro ADME; conditions: midazolam 2.5 μM
T3 construct: purchased Cypex, Dundee CYP/XG001, Batch XG001001; host or cells: E. coli
Source text: as §1
The final DMSO concentration was 1%.

CYP2C19 = biological target: T4, CYP2C19 (Homo sapiens, UniProt P33261); test: CYP inhibition, 5 CYP bactosome mix: CYP2C19 ((S)-mephenytoin); type: in vitro ADME; conditions: (S)-mephenytoin 40 μM
T4 construct: purchased Cypex, Dundee CYP/XG001, Batch XG001001; host or cells: E. coli
Source text: as §1
The final DMSO concentration was 1%.

CYP17A1 = biological target: T5, CYP17A1 (Homo sapiens, UniProt P05093); test: CYP17A1 inhibition (CYP17A1 bactosomes, progesterone substrate, LC-MS/MS); type: biochemical; parameters: purchased Cypex, Dundee, UK; host or cells: bacterial membranes (bactosomes)
T5 sequence (P05093 1-508): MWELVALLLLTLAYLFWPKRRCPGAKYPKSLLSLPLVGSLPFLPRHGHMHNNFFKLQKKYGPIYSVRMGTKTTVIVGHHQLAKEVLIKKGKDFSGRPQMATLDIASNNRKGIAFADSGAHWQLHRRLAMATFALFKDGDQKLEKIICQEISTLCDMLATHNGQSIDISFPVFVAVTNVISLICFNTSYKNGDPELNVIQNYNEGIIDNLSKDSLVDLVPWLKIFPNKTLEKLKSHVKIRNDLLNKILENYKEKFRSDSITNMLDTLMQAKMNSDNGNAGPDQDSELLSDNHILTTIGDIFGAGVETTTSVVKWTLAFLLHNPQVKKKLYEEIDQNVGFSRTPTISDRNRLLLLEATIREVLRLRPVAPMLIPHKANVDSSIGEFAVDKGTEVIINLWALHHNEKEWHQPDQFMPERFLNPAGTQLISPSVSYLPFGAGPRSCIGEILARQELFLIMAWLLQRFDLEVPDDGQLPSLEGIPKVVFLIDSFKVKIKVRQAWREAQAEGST
Procedure: CYP17A1 inhibition was measured using 20 pmol/ml CYP17A1 bactosomes (Cypex, Dundee, UK) and 0.1 μM progesterone as a substrate and 1 mM NADPH in 50 mM potassium phosphate buffer pH 7.4 containing 5 mM magnesium chloride. Inhibitors were dissolved in DMSO and serially diluted in seven ½ log steps, final concentrations ranging from 50 μM to 50 nM. Reaction volume was 100 μl and final DMSO concentration was 1% (v/v). Reactions were started by the addition of NADPH and incubated at 37° C. for 20 minutes with shaking at 1800 rpm on a Bioshake IQ (Q-Instruments, Jena, Germany). Reactions were terminated by the addition of 200 μl methanol containing 1 μM tolbutamide as an internal standard.

T4 sequence (P33261 whole entry): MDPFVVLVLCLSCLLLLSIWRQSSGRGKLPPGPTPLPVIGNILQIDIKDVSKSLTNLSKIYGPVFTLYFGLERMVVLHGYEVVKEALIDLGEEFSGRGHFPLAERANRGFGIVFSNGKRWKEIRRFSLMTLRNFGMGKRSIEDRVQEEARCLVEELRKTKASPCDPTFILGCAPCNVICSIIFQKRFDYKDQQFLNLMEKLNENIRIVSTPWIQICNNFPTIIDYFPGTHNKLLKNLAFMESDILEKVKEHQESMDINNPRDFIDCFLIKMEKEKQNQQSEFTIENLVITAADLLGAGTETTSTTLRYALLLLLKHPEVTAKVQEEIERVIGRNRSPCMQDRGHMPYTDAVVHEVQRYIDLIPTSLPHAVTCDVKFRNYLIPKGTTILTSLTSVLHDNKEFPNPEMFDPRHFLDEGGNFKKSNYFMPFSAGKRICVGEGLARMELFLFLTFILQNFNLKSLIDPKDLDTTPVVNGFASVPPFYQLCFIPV
T3 sequence (P08684 whole entry): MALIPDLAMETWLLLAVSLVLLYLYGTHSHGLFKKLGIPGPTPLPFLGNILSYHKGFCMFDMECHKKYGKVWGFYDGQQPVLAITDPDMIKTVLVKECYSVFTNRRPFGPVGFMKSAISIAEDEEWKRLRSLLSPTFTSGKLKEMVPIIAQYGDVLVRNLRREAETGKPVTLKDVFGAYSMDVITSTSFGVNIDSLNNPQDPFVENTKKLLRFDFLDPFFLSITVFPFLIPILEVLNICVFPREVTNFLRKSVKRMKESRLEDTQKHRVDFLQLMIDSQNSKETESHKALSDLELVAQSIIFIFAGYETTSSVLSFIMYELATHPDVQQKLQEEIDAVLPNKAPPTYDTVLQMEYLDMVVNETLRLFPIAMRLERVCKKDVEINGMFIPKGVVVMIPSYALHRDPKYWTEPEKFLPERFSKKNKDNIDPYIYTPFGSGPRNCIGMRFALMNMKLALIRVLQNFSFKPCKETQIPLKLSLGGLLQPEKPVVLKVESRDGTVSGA
T1 sequence (P10635 whole entry): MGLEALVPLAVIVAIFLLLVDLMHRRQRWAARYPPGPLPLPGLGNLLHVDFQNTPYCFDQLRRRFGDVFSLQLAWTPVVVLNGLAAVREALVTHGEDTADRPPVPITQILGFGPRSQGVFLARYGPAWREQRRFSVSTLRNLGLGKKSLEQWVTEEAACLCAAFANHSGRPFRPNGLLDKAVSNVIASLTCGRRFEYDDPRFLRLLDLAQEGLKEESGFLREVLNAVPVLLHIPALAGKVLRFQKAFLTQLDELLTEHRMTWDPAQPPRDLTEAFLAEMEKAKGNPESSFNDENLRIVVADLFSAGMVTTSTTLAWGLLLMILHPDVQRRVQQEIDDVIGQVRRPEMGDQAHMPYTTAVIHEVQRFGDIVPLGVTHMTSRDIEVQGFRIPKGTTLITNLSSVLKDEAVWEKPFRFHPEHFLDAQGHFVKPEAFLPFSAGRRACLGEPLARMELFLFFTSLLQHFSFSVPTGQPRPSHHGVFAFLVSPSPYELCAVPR

For `Cc1nc(SC(C(=O)c2c[nH]c3ccccc23)c2ccccc2)sc1CC(N)=O` (racemic) [Compound 3, 2-(2-{[2-(1H-indol-3-yl)-2-oxo-1-phenylethyl]sulfanyl}-4-methyl-1,3-thiazol-5-yl)acetamide], which “Soluble in DMSO” value (Solubility in DMSO) is on record?
Its value is “Yes”.

And the “inhibition of metabolic CYP450 isoforms (in words)” value [1]?
Its value is “inhibit various CYP450 isoforms”.

What about the IC50 (CYP2D6) of the same compound?
The IC50 was 15 µM.

What about the safety profile (Toxicity studies) of the same compound?
Its safety profile is “reasonably good safety profiles”.

What about the IC50 (CYP1A2) of the same compound?
The IC50 was 12.6 µM.

What about the IC50 (CYP3A4) of the same compound?
The IC50 was 2.7 µM.

What about the IC50 (CYP2C19) of the same compound?
The IC50 was 8.3 µM.

And the IC50 (CYP17A1; 20 pmol/ml bactosomes, 0.1 μM progesterone, 50 μM to 50 nM)?
Its IC50 is over 34.1 µM.

What about the “inhibitory potency of CYP17A1 (in words)” value (CYP17A1; summary of Table 2) of the same compound?
The value was “micromolar levels”.
